The text below walks through data of US9328085B2, “Heterocyclic compounds and expansion agents for hematopoietic stem cells” (NISSAN CHEMICAL INDUSTRIES, LTD., priority 2009, dated 2016).

SMILES strings stand for the structures.

One assay concerns CD34^+CD38^− cells. Put plainly: Expansion of CD34+CD38- cells using human cord blood-derived CD34+ cells (Assay Example 1). The class given is cell-based. Particulars: for Comparison with TPO: 3 μg/mL compound vs TPO 10 ng/mL, CD34^+CD38^− cells; for Expansion efficiency (CD34^+CD38^− cells): 3 μg/mL compound, 100 ng/mL SCF, 7 days, based on the number of CD34^+CD38^− cells in the absence of compound. In a few lines:
(§1)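 Human cord blood CD34^+ cells cultured 7 days at 37° C, 5% CO2 in StemSpan SFEM with 100 ng/mL SCF and compound at 1 or 3 μg/mL (0.1% DMSO). Viable cells by trypan blue; CD34^+ and CD34^+CD38^− fractions by flow cytometry (PI exclusion); expansion relative to compound-free culture, scored A/B/C.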

In a further assay the test system is CD34^+ cells. Put plainly: Expansion of CD34+ cells using human cord blood-derived CD34+ cells (Assay Example 1). It is filed as cell-based. The note with it: 3 μg/mL compound; 100 ng/mL SCF, 7 days; based on the number of CD34^+ cells in the absence of compound. Summed up: as §1
The next assay has as its system SRC. As to the kind of experiment: Transplantation of cell culture into immunodeficient (NOD/SCID) mice, SRC assay (Assay Example 4). It is filed as in vivo. Particulars: CD34^+ cells cultured 1 week with 3 μg/mL Compound No. 60, SCF and Flt-3, 8 weeks after transplantation, vs uncultured CD34^+ cells, FIG. 2. The protocol: Human cord blood-derived CD34^+ cells were cultured for 1 week in StemSpan SFEM (StemCell Technologies) containing SCF (Peprotech) at a final concentration of 100 ng/mL and Flt-3 (Wako Pure Chemical Industries) at a final concentration of 100 ng/mL in the presence of TPO (Peprotech) at a final concentration of 20 ng/mL or Compound No. 60 at a final concentration of 3 μg/mL in the same manner as in Assay Example 1. The cell culture were transplanted into at least five 7- to 8-week-old NOD/SCID mice by tail vein injection at 4×10^4 cells/mouse in terms of the initial number of CD34^+ cells after a sublethal dose of irradiation (2.5 Gy). Eight weeks after the transplantation, the mice were killed, and the bone marrow cells were collected from both thighbones. Subsequently, the bone marrow cells were stained with a human CD45 antibody (APC, Becton, Dickinson and Company), then washed with PBS(−) containing 2% (v/v) FBS and stained with propidium iodide (Sigma-Aldrich Japan) added to a final concentration of 5 μg/mL. The stained cells were analyzed with a flow cytometry to determined the proportion of human CD45^+ cells in the bone marrow cells. […]

Another assay has as its system HPP-CFC colonies. Put plainly: Expansion of HPP-CFU, blood cell colony forming assay (Assay Example 3). It is filed as cell-based, human. The note with it: cells cultured with 3 μg/mL compound, 500 cells/dish, 12 days; None = 6. As to the method:
The effects of Compounds No. 60 and No. 61 of the present invention on hematopoietic progenitor cells were measured by blood cell colony forming assay. The liquid cell cultures obtained in the presence of Compounds No. 60 or No. 61 at a final concentration of 3 μg/mL in the same manner as in Assay Example 1 were poured into 3.5-cm Petri dishes with MethoCult GF H4435 culture medium (StemCell Technologies) at 500 cells/dish and incubated in a CO2 incubator (5% CO2, 37° C.) for 12 days. The number of HPP-CFC colonies in each plate was counted under a microscope routinely. The assay was carried out at least in triplicate, and the numbers of HPP-CFC colonies were averaged.

Regarding `CC(=NNC(=O)c1ccc(C(=O)NCc2ccc(C(=O)NCCOCCO)cc2)s1)c1csc(-c2ccc(C(C)(C)C)cc2)c1O` [Compound No. 60], in the assay with CD34^+CD38^− cells, the “Comparison with TPO” value is recorded as “∘” and the “Expansion efficiency (CD34^+CD38^− cells)” value was “A (A for expansion efficiencies of 10 or greater)”. Moreover, the “Expansion efficiency (CD34^+ cells)” value with CD34^+ cells was “B (B for expansion efficiencies of at least 4 and less than 6)”. For the same molecule, the “SRC expanding effect (proportion of human CD45^+ cells in bone marrow)” value with SRC was “excellent SRC expanding effect”. In the assay on HPP-CFC colonies, the “Number of HPP-CFC colonies” value was found to be 25.

`CC(=NNC(=O)c1ccc(C(=O)NCc2ccc(C(=O)NCCOCCO)cc2)s1)c1csc(-c2ccc(Br)cc2)c1O` [compound 61]: in the assay on CD34^+CD38^− cells, the “Comparison with TPO” value was “∘” and the “Expansion efficiency (CD34^+CD38^− cells)” value is given as “A (A for expansion efficiencies of 10 or greater)”. For the same molecule, the “Expansion efficiency (CD34^+ cells)” value in the assay on CD34^+ cells is on record as “A (A for expansion efficiencies of 6 or greater)”. The “Number of HPP-CFC colonies” value in the assay on HPP-CFC colonies worked out at 14.
